Earlier results, collected in patent US9737644B2, “Medical device coatings” (TYRX, Inc., priority 2010, dated 2017).

Test system: myofibroblast formation
Conditions: animal studies, Ajmal et al. (2003)

SMILES: O=S(=O)([O-])CCS.[Na+] [Mesna, sodium 2-mercaptoethane sulfonate]
- myofibroblast formation: diminish myofibroblast formation
